Data: US5380715A, “Ap4 A as a hypotensive agent” (Fujirebio Inc., priority 1992, dated 1995)
“Also recorded” adds a separate entry of the source.

Tests used:
rats = experiment: Gradual hypotension during anesthesia in rats; assay type: in vivo, male SD rats; settings: rat
Method: Male SD rats (Charles River Japan Inc.) were anesthetized with intravenous thiopental 50 mg/kg as a bolus, followed by 1% enflurane in air.
A femoral artery was catheterized to monitor the blood pressure and heart rate, while a femoral vein was catheterized for the administration of each of the test drugs.
The control values were obtained before the administration of each test drug. Each test drug was then administered using a syringe in a dose-dependent manner for 15 minutes. The percentage (%) of the decrease of blood pressure was determined when stabilized. Changes in heart rate (H.R.) at the administration of each test drug were measured. Furthermore,the recovery of mean blood pressure after intravenous infusion of each test drug was also determined from the decrease in heart rate and the blood pressure at a maximum dose of each test drug.

dogs = experiment: Gradual hypotension during anesthesia in dogs (hemodynamics, blood gas); assay type: in vivo, mongrel dogs; settings: dog
Method: Dogs were anesthetized with enflurane. […] The mean blood pressure (B.P.), heart rate (H.R.), cardiac output (C.O.), arterial oxygen tension (PaO2), mixed venos oxygen tension (PvO2), arterial carbonate tension (PaCO2), mixed venous carbonate tension (PvCO2), arterial pH (pH-a), mixed venous pH (pH-v), and base excess thereof were measured.
Mongrel dogs weighing 9 to 17 kg were anesthetized with intravenous thiopental 20 mg/kg by bolus injection, followed by 1% enflurane in 40% O2 /N2 after endotracheal intubation. […] Bilateral femoral arteries were catheterized, one for the determination of blood pressure and the other for blood sampling.
Access to the bilateral femoral veins was obtained for the administration of Ap4A, PG E1 or nitroglycerin and for the insertion of a ballon-tipped thermodilution catheter. The electrocardiogram was continuously monitored. The control values were obtained before the administration of each of the above-mentioned three agents. Each agent was administered using a syringe pump at titrated doses to produce gradual 20%, 40%, 50%, 60%, and 80% decreases in the mean arterial pressure (MAP) from the control value.
After the target blood pressure and stable hemodynamic conditions were reached, the following parameters were measured: heart rate (HR), mean pulmonary artery pressure (PAM), pulmonary capillary wedge pressure (PCWP), and central venous pressure (CVP). Cardiac output (CO) was determined by the thermodilution method. Gas analyses of arterial and mixed venous bloods were performed using a blood gas analyzer.

[1] = enflurane, infusion 1 μg/kg/min
[2] = enflurane, infusion 3 μg/kg/min
[3] = enflurane, infusion 10 μg/kg/min
[4] = enflurane, infusion 30 μg/kg/min
[5] = enflurane, infusion 100 μg/kg/min
[6] = enflurane, infusion 300 μg/kg/min
[7] = enflurane, infusion 1000 μg/kg/min
[8] = enflurane, infusion 3000 μg/kg/min
[9] = enflurane, at -20% blood pressure
[10] = enflurane, at -40% blood pressure
[11] = enflurane, at -50% blood pressure
[12] = enflurane, at -60% blood pressure
[13] = enflurane, at -80% blood pressure

Structure (SMILES): Nc1ncnc2c1ncn2[C@@H]1O[C@H](COP(=O)(O)OP(=O)(O)OP(=O)(O)OP(=O)(O)OC[C@H]2O[C@@H](n3cnc4c(N)ncnc43)[C@H](O)[C@@H]2O)[C@@H](O)[C@H]1O [Ap4A, diadenosine 5',5'"-p^1,p^4 -tetraphosphate]
- administration that gradually decreased blood pressure (rats; enflurane): ≥ 10 µg/kg/min
- fall in blood pressure (rats; enflurane, 300 μg/kg/min): about 40%
- fall in blood pressure (rats; enflurane, 1000 μg/kg/min or more): ≥ 60%
- Blood Pressure (Δ%) (rats; [1]): 0%
- Heart Rate (Δ%) (rats; [1]): 0%
- Blood Pressure (Δ%) (rats; [2]): 0%
- Heart Rate (Δ%) (rats; [2]): 0%
- Blood Pressure (Δ%) (rats; [3]): -4.7 ± 0.6%
- Heart Rate (Δ%) (rats; [3]): 1.3 ± 0.6%
- Blood Pressure (Δ%) (rats; [4]): -10.2 ± 1.1%
- Heart Rate (Δ%) (rats; [4]): 2.7 ± 0.8%
- Blood Pressure (Δ%) (rats; [5]): -22.9 ± 1.2%
- Heart Rate (Δ%) (rats; [5]): 2.4 ± 1.0%
- Blood Pressure (Δ%) (rats; [6]): -43.5 ± 2.2%
- Heart Rate (Δ%) (rats; [6]): -6.6 ± 1.2%
- Blood Pressure (Δ%) (rats; [7]): -58.6 ± 1.8%
- Heart Rate (Δ%) (rats; [7]): -15.9 ± 1.9%
- Blood Pressure (Δ%) (rats; [8]): -65.8 ± 1.2%
- Heart Rate (Δ%) (rats; [8]): -24.9 ± 2.4%
- decrease of heart rate (rats; enflurane, result in words): A significant decrease of heart rate was observed at about 60% fall in blood pressure
- stability of hypotensive effect at each dose (rats; result in words): did not significantly change the blood pressure attained by each dose
- fall in blood pressure attainable (dogs; enflurane): ~60%
- Arterial Carbonate Tension PaCO2 (dogs; [9]): 36.0 ± 1.0 mmHg
- Arterial Oxygen Tension PaO2 (dogs; [9]): 252.8 ± 7.2 mmHg
- Arterial pH (pH-a) (dogs; [9]): 7.337 ± 0.013
- Body Temperature BT (dogs; [9]): 37.2 ± 0.6 °C
- Cardiac Output C.O. (dogs; [9]): 2.42 ± 0.25 L/min
- Central Venous Pressure CVP (dogs; [9]): 3.77 ± 0.25 mmHg
- Heart Rate H.R. (dogs; [9]): 160.1 ± 7.5 beats/min
- Hematocrit Value Hct (dogs; [9]): 40.6 ± 2.1%
- Mean Blood Pressure B.P. (mean) (dogs; [9]): 104.3 ± 3.3
- Mean Blood Pressure B.P. (Δ%) (dogs; [9]): -19.8 ± 0.4%
- Mixed Venous Carbonate Tension PvCO2 (dogs; [9]): 39.3 ± 1.2 mmHg
- Mixed Venous Oxygen Tension PvO2 (dogs; [9]): 61.6 ± 2.4 mmHg
- Mixed Venous pH (pH-v) (dogs; [9]): 7.308 ± 0.008
- Pulmonary Artery Pressure PAM (dogs; [9]): 18.4 ± 1.5 mmHg
- Pulmonary Capillary Wedge Pressure PCWP (dogs; [9]): 8.3 ± 1.3 mmHg
- Base Excess BE (dogs; enflurane, at -20% blood pressure (Table 1)): -5.39 ± 0.77 mBq-1
- Arterial Carbonate Tension PaCO2 (dogs; [10]): 35.3 ± 1.0 mmHg
- Arterial Oxygen Tension PaO2 (dogs; [10]): 253.8 ± 7.6 mmHg
- Arterial pH (pH-a) (dogs; [10]): 7.341 ± 0.018
- Body Temperature BT (dogs; [10]): 37.3 ± 0.6 °C
- Cardiac Output C.O. (dogs; [10]): 2.22 ± 0.15 L/min
- Central Venous Pressure CVP (dogs; [10]): 3.89 ± 0.29 mmHg
- Heart Rate H.R. (dogs; [10]): 154.9 ± 6.9 beats/min
- Hematocrit Value Hct (dogs; [10]): 40.6 ± 1.7%
- Mean Blood Pressure B.P. (mean) (dogs; [10]): 78.2 ± 2.3
- Mean Blood Pressure B.P. (Δ%) (dogs; [10]): -39.8 ± 0.4%
- Mixed Venous Carbonate Tension PvCO2 (dogs; [10]): 36.6 ± 1.3 mmHg
- Mixed Venous Oxygen Tension PvO2 (dogs; [10]): 63.3 ± 1.7 mmHg
- Mixed Venous pH (pH-v) (dogs; [10]): 7.311 ± 0.009
- Pulmonary Artery Pressure PAM (dogs; [10]): 17.8 ± 1.6 mmHg
- Pulmonary Capillary Wedge Pressure PCWP (dogs; [10]): 8.0 ± 1.2 mmHg
- Base Excess BE (dogs; enflurane, at -40% blood pressure (Table 1)): -5.52 ± 0.89 mBq-1
- Arterial Carbonate Tension PaCO2 (dogs; [11]): 35.0 ± 1.1 mmHg
- Arterial Oxygen Tension PaO2 (dogs; [11]): 252.5 ± 7.5 mmHg
- Arterial pH (pH-a) (dogs; [11]): 7.338 ± 0.011
- Body Temperature BT (dogs; [11]): 37.2 ± 0.6 °C
- Cardiac Output C.O. (dogs; [11]): 2.02 ± 0.16 L/min
- Central Venous Pressure CVP (dogs; [11]): 3.64 ± 0.35 mmHg
- Heart Rate H.R. (dogs; [11]): 144.0 ± 7.3 beats/min
- Hematocrit Value Hct (dogs; [11]): 40.7 ± 1.7%
- Mean Blood Pressure B.P. (mean) (dogs; [11]): 65.4 ± 2.0
- Mean Blood Pressure B.P. (Δ%) (dogs; [11]): -49.6 ± 0.4%
- Mixed Venous Carbonate Tension PvCO2 (dogs; [11]): 36.7 ± 1.4 mmHg
- Mixed Venous Oxygen Tension PvO2 (dogs; [11]): 60.5 ± 2.1 mmHg
- Mixed Venous pH (pH-v) (dogs; [11]): 7.308 ± 0.011
- Pulmonary Artery Pressure PAM (dogs; [11]): 16.3 ± 1.4 mmHg
- Pulmonary Capillary Wedge Pressure PCWP (dogs; [11]): 7.6 ± 1.2 mmHg
- Base Excess BE (dogs; enflurane, at -50% blood pressure (Table 1)): -5.77 ± 0.66 mBq-1
- Arterial Carbonate Tension PaCO2 (dogs; [12]): 34.6 ± 1.3 mmHg
- Arterial Oxygen Tension PaO2 (dogs; [12]): 253.8 ± 7.7 mmHg
- Arterial pH (pH-a) (dogs; [12]): 7.315 ± 0.010
- Body Temperature BT (dogs; [12]): 37.2 ± 0.6 °C
- Cardiac Output C.O. (dogs; [12]): 1.55 ± 0.20 L/min
- Central Venous Pressure CVP (dogs; [12]): 3.63 ± 0.44 mmHg
- Dose (dogs; [12]): 242.4 ± 32.8 µg/kg/min
- Heart Rate H.R. (dogs; [12]): 131.6 ± 7.5 beats/min
- Hematocrit Value Hct (dogs; [12]): 41.9 ± 2.2%
- Mean Blood Pressure B.P. (mean) (dogs; [12]): 51.7 ± 1.7
- Mean Blood Pressure B.P. (Δ%) (dogs; [12]): -60.3 ± 0.2%
- Mixed Venous Carbonate Tension PvCO2 (dogs; [12]): 38.1 ± 1.8 mmHg
- Mixed Venous Oxygen Tension PvO2 (dogs; [12]): 54.9 ± 1.8 mmHg
- Mixed Venous pH (pH-v) (dogs; [12]): 7.292 ± 0.011
- Pulmonary Artery Pressure PAM (dogs; [12]): 14.3 ± 1.1 mmHg
- Pulmonary Capillary Wedge Pressure PCWP (dogs; [12]): 6.7 ± 10.9 mmHg
- Base Excess BE (dogs; enflurane, at -60% blood pressure (Table 1)): -7.30 ± 0.64 mBq-1
- Arterial Carbonate Tension PaCO2 (dogs; [13]): 37.5 ± 1.1 mmHg
- Arterial Oxygen Tension PaO2 (dogs; [13]): 245.6 ± 9.2 mmHg
- Arterial pH (pH-a) (dogs; [13]): 7.260 ± 0.010
- Body Temperature BT (dogs; [13]): 37.4 ± 0.6 °C
- Cardiac Output C.O. (dogs; [13]): 1.16 ± 0.11 L/min
- Central Venous Pressure CVP (dogs; [13]): 3.51 ± 0.60 mmHg
- Dose (dogs; [13]): 3895.2 ± 675.7 µg/kg/min
- Heart Rate H.R. (dogs; [13]): 98.6 ± 4.7 beats/min
- Hematocrit Value Hct (dogs; [13]): 42.8 ± 2.2%
- Mean Blood Pressure B.P. (mean) (dogs; [13]): 28.8 ± 1.0
- Mean Blood Pressure B.P. (Δ%) (dogs; [13]): -77.8 ± 0.8%
- Mixed Venous Carbonate Tension PvCO2 (dogs; [13]): 44.4 ± 1.4 mmHg
- Mixed Venous Oxygen Tension PvO2 (dogs; [13]): 53.3 ± 2.8 mmHg
- Mixed Venous pH (pH-v) (dogs; [13]): 7.228 ± 0.014
- Pulmonary Artery Pressure PAM (dogs; [13]): 14.3 ± 1.2 mmHg
- Pulmonary Capillary Wedge Pressure PCWP (dogs; [13]): 7.4 ± 1.0 mmHg
- Base Excess BE (dogs; enflurane, at -80% blood pressure (Table 1)): -9.36 ± 0.79 mBq-1
- effect on arterial pH / venous pH (dogs; result in words): does not decrease arterial pH and venous pH up to a less than 60% fall in blood pressure; also recorded: does not substantially decrease arterial pH in practical use
- effect on base excess (dogs; result in words): does not make any significant changes in base excess
- effect on carbonate tension (dogs; result in words): tendency to decrease arterial carbonate tension (PaCO2), and mixed venous carbonate tension (PvCO2); also recorded: tendency to decrease arterial carbonate tension (PaCO2), mixed venous carbonate tension (PvCO2), or actually decreases PaCO2 and PvCO2
- effect on cardiac output (dogs; result in words): cardiac output is significantly increased at a 20% fall in blood pressure; also recorded: tendency to significantly increase the cardiac output when a 20% fall in blood pressure is attained, and the cardiac output is continuously increased until a 60% fall in blood pressure is attained
- effect on heart rate (dogs; result in words): when a 60% or more fall in blood pressure is attained, Ap4A is seem to have significant adverse effects on the heart rate; also recorded: significant effect on heart rate is that required for a 60% or more fall in blood pressure
- effect on oxygen tension (dogs; result in words): tendency to increase arterial oxygen tension (PaO2), and mixed venous oxygen tension (PvO2); also recorded: tendency to increase arterial oxygen tension (PaO2), and mixed venous oxygen tension (PvCO2), or actually increases PaO2 and PvO2
- hypotensive effect compared with PG E1 / nitroglycerin (dogs; result in words): the same hypotensive effect as that of PG E1; also recorded: comparable with that of PG E1 and is better than that of nitroglycerin
